Data published in patent publication US12398119B2, “Piperazine azaspiro derivatives” (PFIZER INC., priority 2018, dated 2025).
Where two headings read alike, the source gives them in different places.

Target: T1, Human M4 mAChR (Homo sapiens, UniProt P08173)
T1 construct: host or cells: HEK293 (Sor-L9 HEK293 human/M4/GloSensor Cell Clone Number 40)
T1 sequence (P08173 1-479): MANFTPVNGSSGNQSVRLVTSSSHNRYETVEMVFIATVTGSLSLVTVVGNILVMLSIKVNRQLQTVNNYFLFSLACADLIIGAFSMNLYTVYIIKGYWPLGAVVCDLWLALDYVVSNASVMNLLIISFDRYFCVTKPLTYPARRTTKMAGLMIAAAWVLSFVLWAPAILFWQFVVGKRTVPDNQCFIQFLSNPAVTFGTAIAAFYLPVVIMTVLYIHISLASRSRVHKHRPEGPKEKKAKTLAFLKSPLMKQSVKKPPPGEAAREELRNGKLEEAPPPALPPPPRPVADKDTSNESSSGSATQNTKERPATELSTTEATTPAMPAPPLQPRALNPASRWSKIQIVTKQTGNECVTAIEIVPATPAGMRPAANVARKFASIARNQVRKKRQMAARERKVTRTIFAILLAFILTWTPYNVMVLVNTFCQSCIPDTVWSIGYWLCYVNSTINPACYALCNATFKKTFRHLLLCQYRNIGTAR
Assay: Muscarinic hM4 Agonist GloSensor cAMP Assay
Type: cell-based
Description: Muscarinic hM4 Agonist GloSensor cAMP Assay Methods
Compounds were prepared in advance of the assay. Test compounds were solubilized in 100% dimethyl sulfoxide (DMSO, Sigma D8418) to a concentration of 30 mM. A 10-point intermediate dilution series using half log dilutions was created in 100% DMSO with a top concentration of 4 mM. The serially diluted compounds were spotted as 200 nL/well in a 384-well plate (Matrix Catalog Number 4325). The final compound concentration range in the assay was […] to 0.3 nM with a final DMSO concentration of 0.25%.
Human M4 mAChR expressing stable cell lines were generated using a parental HEK cell expressing the GloSensor construct (Promega Sor-L9 HEK293 human/M4/GloSensor Cell Clone Number 40). The cells were grown in 90% Dulbecco's Modified Eagle Medium (DMEM, Gibco 11960), 10% fetal bovine serum (FBS, Hyclone CH.30160-03), 1% Penicillin/Streptomycin (Gibco 15070-063), 500 µg/mL Geneticin (Gibco 10131-027), 200 µg/mL Hygromycin B (Invitrogen 10687-010) and 1% Glutamax (Thermo Fisher 35050061).
One day prior to assay, the cells were lifted using dissociation buffer (Gibco 13151-014) and spun in a centrifuge at 250 times gravity for 5 minutes at room temperature. Supernatant was removed and the cell pellet was resuspended in growth media to a concentration of […]. Cells were then added to white poly-d-lysine coated plates (Becton Dickinson 356661) as 40 μL per well (25,000 cells) and incubated overnight (20-24 hours) in a 37° C. humidified incubator with 5% carbon dioxide (C02).
The following day, culture media was removed from the cell plates and replaced with […] equilibration medium containing 88% CO2-independent medium (Invitrogen 18045088), 10% FBS and 2% GloSensor cAMP reagent (Promega E1291) that had been warmed to 37° C. Plates were then covered and incubated for 2 hours at room temperature while protected from light.
To the previously prepared serially diluted compound plates, 200 nL of 4 mM ACh (Sigma A2661, 10 μM final) or 200 nL of 100% DMSO (0.25% final) was added to the positive and negative control wells, respectively. Compound plates were then diluted by adding 16 μL of C02-independent media containing 10% FBS and an EC80 concentration of isoproterenol (Sigma 16504). Prior to compound testing, concentration response curves were run for isoproterenol to determine the EC80 concentration. At the end of the 2 hour equilibration, 10 µL was transferred from the compound plates to the cell plates. The cell plates were incubated an additional 7 minutes at room temperature and then read using a Multi-label EnVision plate reader (Perkin Elmer) for luminescence.
The raw data, expressed as relative light units, was analyzed using Activity Base (IDBS). The percent effect at each compound concentration was calculated based on and relative to the amount of cAMP produced by the positive and negative control wells contained on each assay plate. The positive control wells contained an EC100 concentration of ACh and the negative control wells contained only DMSO. The concentration and % effect values were fit using a four-parameter logistic dose response equation, and the concentration required for 50% effect (EC50) was determined as well as the maximum asymptote of the concentration response curve to define the efficacy.

[1] = Emax: maximum asymptote of concentration response curve, relative to ACh positive control (EC100) and DMSO, geometric mean, read-out: % maximum effect
[2] = HEK293 human/M4/GloSensor cells, EC80 isoproterenol, geometric mean, number of determinations in parentheses, read-out: EC50
[3] = enantiomers reported in footnotes to Table 1, number of determinations in parentheses, read-out: M4 EC50
[4] = enantiomers reported in footnotes to Table 1, number of determinations in parentheses, read-out: M4 Emax

| SMILES | Emax [1] | EC50 [2] | EC50 [3] | Emax [4] |
| --- | --- | --- | --- | --- |
| CCOC(=O)N1CC2(CCC(N3CCN(c4ncccc4-c4ccc(C#N)cc4)CC3)C2)C1 (stereo not drawn) [Example 53, ethyl 6-(4-(3-(4-cyanophenyl)pyridin-2-yl)piperazin-1-yl)-2-azaspiro[3.4]octane-2-carboxylate] | 97% | 1.75 nM |  |  |
| CCOC(=O)N1CCC2(CC(N3CCN(c4ncccc4OC)CC3)C2)C1 (stereo not drawn) [Example 12, ethyl 2-[4-(3-methoxypyridin-2-yl)piperazin-1-yl]-6-azaspiro[3.4]octane-6-carboxylate] | 95.2% | 23.3 nM |  |  |
| CCOC(=O)N1CC2(CC[C@@H](N3CCN(c4ncccc4N4CC5(COC5)C4)CC3)C2)C1 [Example 44, ethyl (6R)-6-{4-[3-(2-oxa-6-azaspiro[3.3]hept-6-yl)pyridin-2-yl]piperazin-1-yl}-2-azaspiro[3.4]octane-2-carboxylate] | 92.5% | 1 nM |  |  |
| CCOC(=O)N1CC2(CCC(N3CCN(c4ncccc4N4CCC(c5ccnn5C)CC4)CC3)C2)C1 (stereo not drawn) [Example 28, ethyl 6-(4-{3-[4-(1-methyl-1H-pyrazol-5-yl)pipendin-1-yl]pyridin-2-yl}piperazin-1-yl)-2-azaspiro[3.4]octane-2-carboxylate] | 60% | 1.78 nM |  |  |
| CCOC(=O)N1CC2(CCC(N3CCN(c4nccnc4OC)CC3)C2)C1 (single isomer, unassigned) [Example 27, ethyl 6-[4-(3-methoxypyrazin-2-yl)piperazin-1-yl]-2-azaspiro[3.4]octane-2-carboxylate] | 25.1% | 11.4 nM |  |  |
| CCOC(=O)N1CC2(CC[C@@H](N3CCN(c4ncccc4-c4ccncn4)CC3)C2)C1 [Example 46, ethyl (6R)-6-{4-[3-(pyrimidin-4-yl)pyridin-2-yl]piperazin-1-yl}-2-azaspiro[3.4]octane-2-carboxylate] | 96.6% | < 1.75 nM |  |  |
| CCOC(=O)N1CC2(CCC(N3CCN(c4cccnc4OC(F)F)CC3)C2)C1 (single isomer, unassigned) [enantiomer of Example 19, ethyl 6-{4-[2-(difluoromethoxy)pyridin-3-yl]piperazin-1-yl}-2-azaspiro[3.4]octane-2-carboxylate] |  |  | 201 nM | 74% |
| CCOC(=O)N1CC2(CCC(N3CCN(c4nccnc4OC)CC3)C2)C1 (single isomer, unassigned) [enantiomer of Example 27, ethyl 6-[4-(3-methoxypyrazin-2-yl)piperazin-1-yl]-2-azaspiro[3.4]octane-2-carboxylate] |  |  | > 10000 nM |  |
| CCOC(=O)N1CC2(CC[C@@H](N3CCN(c4nccnc4N4CCC(OC)CC4)CC3)C2)C1 [Example 43, ethyl (6R)-6-{4-[3-(4-methoxypiperidin-1-yl)pyrazin-2-yl]piperazin-1-yl}-2-azaspiro[3.4]octane-2-carboxylate] | 55.5% | 1.51 nM |  |  |
| CCOC(=O)N1CC2(CCC(N3CCN(c4ncccc4C)CC3)C2)C1 (single isomer, unassigned) [enantiomer of Example 21, ethyl 6-[4-(3-methylpyridin-2-yl)piperazin-1-yl]-2-azaspiro[3.4]octane-2-carboxylate] |  |  | > 241 nM | 76.2% |
| CCOC(=O)N1CC2(CC[C@@H](N3CCN(c4ncccc4-c4cnccn4)CC3)C2)C1 [Example 8, ethyl (6R)-6-{4-[3-(pyrazin-2-yl)pyridin-2-yl]piperazin-1-yl}-2-azaspiro[3.4]octane-2-carboxylate] | 98.7% | 2.23 nM |  |  |
| CCOCCn1cc(-c2cccnc2N2CCN([C@@H]3CCC4(C3)CN(C(=O)OCC)C4)CC2)cn1 [Example 50, ethyl (6R)-6-(4-{3-[1-(2-ethoxyethyl)-1H-pyrazol-4-yl]pyridin-2-yl}piperazin-1-yl)-2-azaspiro[3.4]octane-2-carboxylate] | 89.4% | < 0.389 nM |  |  |

Continued, values first:

| Emax [1] | EC50 [2] | EC50 [3] | Emax [4] | SMILES |
| --- | --- | --- | --- | --- |
| 83.7% | 3.87 nM |  |  | CCOC(=O)N1CC2(CCC(N3CCN(c4ncccc4-c4cnc(OC)cn4)CC3)C2)C1 (single isomer, unassigned) [Example 3, ethyl 6-{4-[3-(5-methoxypyrazin-2-yl)pyridin-2-yl]piperazin-1-yl}-2-azaspiro[3.4]octane-2-carboxylate] |
| 46.4% | 1.6 nM |  |  | CCOC(=O)N1CC2(CC[C@@H](N3CCN(c4ncccc4-c4nncs4)CC3)C2)C1 [Example 5, ethyl (6R)-6-{4-[3-(1,3,4-thiadiazol-2-yl)pyridin-2-yl]piperazin-1-yl}-2-azaspiro[3.4]octane-2-carboxylate] |
| 63.5% | 2.78 nM |  |  | CCOC(=O)N1CC2(CC[C@@H](N3CCN(c4ncccc4-c4cnc(C)nc4)CC3)C2)C1 [Example 47, ethyl (6R)-6-{4-[3-(2-methylpyrimidin-5-yl)pyridin-2-yl]piperazin-1-yl}-2-azaspiro[3.4]octane-2-carboxylate] |
| 92% | 0.568 nM |  |  | CCOC(=O)N1CC2(CCC(N3CCN(c4ncccc4-c4ccc(NC(C)=O)cc4)CC3)C2)C1 (stereo not drawn) [Example 52, ethyl 6-(4-(3-(4-acetamidophenyl)pyridin-2-yl)piperazin-1-yl)-2-azaspiro[3.4]octane-2-carboxylate] |
| 70.3% | 2.28 nM |  |  | CCOC(=O)N1CC2(CCC(N3CCN(c4ncccc4N4CC(C#N)C4)CC3)C2)C1 (stereo not drawn) [Example 30, ethyl 6-{4-[3-(3-cyanoazetidin-1-yl)pyridin-2-yl]piperazin-1-yl}-2-azaspiro[3.4]octane-2-carboxylate] |
| 74.7% | 1.17 nM |  |  | CCOC(=O)N1CC2(CCC(N3CCN(c4ncccc4-c4ccc(OC)nc4)CC3)C2)C1 (stereo not drawn) [Example 38, ethyl 6-[4-(6′-methoxy-3,3′-bipyridin-2-yl)piperazin-1-yl]-2-azaspiro[3.4]octane-2-carboxylate] |
|  |  | > 10000 nM |  | CCOC(=O)N1CCC2(CC(N3CCN(c4ncccc4-c4ccc(C#N)cn4)CC3)C2)C1 (single isomer, unassigned) [enantiomer of Example 23, ethyl 2-[4-(5-cyano-2,3′-bipyridin-2′-yl)piperazin-1-yl]-6-azaspiro[3.4]octane-6-carboxylate] |
| 24.7% | 6.1 nM |  |  | CCOC(=O)N1CC2(CCC(N3CCN(c4ncccc4-c4cncc(OC(F)F)c4)CC3)C2)C1 (stereo not drawn) [Example 37, ethyl 6-{4-[5′-(difluoromethoxy)-3,3′-bipyridin-2-yl]piperazin-1-yl}-2-azaspiro[3.4]octane-2-carboxylate] |
| 35.2% | 8.2 nM |  |  | CCOC(=O)N1CC2(CCC(N3CCN(c4ncccc4-c4cccnn4)CC3)C2)C1 (stereo not drawn) [Example 45, ethyl 6-{4-[3-(pyridazin-3-yl)pyridin-2-yl]piperazin-1-yl}-2-azaspiro[3.4]octane-2-carboxylate] |
| 82.7% | 4.59 nM |  |  | CCOC(=O)N1CC2(CCC(N3CCN(c4ncccc4-c4cnc(OC)cn4)CC3)C2)C1 (stereo not drawn) [Example 1, ethyl 6-{4-[3-(5-methoxypyrazin-2-yl)pyridin-2-yl]piperazin-1-yl}-2-azaspiro[3.4]octane-2-carboxylate] |
